From patent publication US10633423B2, “IL-6-binding polypeptide complex” (AFFIBODY AB, priority 2014, dated 2020)

Experiments:
TNF = biological target: T1, TNF (Homo sapiens, UniProt P01375); assay: ELISA binding activity of matured complexes, TNF (Example 13); details: approximate; plates coated with 0.5 μg/ml TNF
T1 construct: purchased R&D Systems
Procedure: The binding of TNF and IL-6 targeting complexes was analyzed in an ELISA assay. Half-area 96-well ELISA plates were directly coated at 4° C. overnight with 0.5 μg/ml of TNF or IL-6 in PBS buffer and the wells were blocked with 100 μl of 3% skim milk/PBS (137 mM NaCl, 2.7 mM KCl, 10 mM Na2HPO4, 1.8 mM KH2PO4) for 1 h at RT. Next, 30 μl of serially diluted complexes and control antibodies from a starting concentration of 1 μg/ml in 3% skim milk/PBS were added to each well. The plates were incubated for 2 h at RT followed by washing four times with PBST 0.05%. HRP conjugated anti-human IgG Fc secondary antibody (Pierce, cat. no. 31423) was diluted 1:5000 in 3% skim milk/PBS and added to the wells followed by 1 h incubation. After washing as described above, 30 μl ImmunoPure TMB substrate (Pierce, cat. no. 34014) was added to the wells and the plates were treated according to the manufacturer's recommendations. Adalimumab (Abbvie, LOT4435XH04) was used as a positive control for the TNF binding activity and as a negative control for the IL-6 binding activity. Furthermore, an irrelevant IgG (Jackson Immunoresearch, cat. no. Jac-009-000-003) was included as a negative control in both assays.

[1] = RA patients, monotherapy, Gabay et al 2013; cited from earlier work
[2] = test system: IL-6 trans-signaling in human umbilical vein endothelial cells (HUVECs); assay: HUVEC trans-signaling assay, MCP-1 readout; format: cell-based; details: Z variants fused to ABD variant PP013
Procedure: To address the trans-signaling pathway, a second assay was used. Herein, human umbilical vein endothelial cells (HUVECs) were stimulated with hIL-6 and soluble hIL-6Rα and the readout was the production of monocyte chemoattractant protein-1 (MCP-1). HUVECs (Lonza) were grown in EGM-2 bullet kit media (Lonza) and passaged in culture no more than eight times. Cells were grown until 75% confluence before use. Cells were detached using trypsin/EDTA (Lonza), resuspended and washed once in fresh medium. Next, cells were counted and dispensed into 96 well flat bottom plates at a density of 2×10^4 cells per well. Cells were cultured overnight at 37° C. in a humidified 5% CO2 atmosphere. […] The pre-mixed solutions with the test molecules and hIL-6/hIL-6Rα were then transferred to wells containing HUVECs, which were incubated for 24 h at 37° C. in a humidified 5% CO2 atmosphere. Cell free supernatant was collected after the incubation period and human MCP-1 levels were determined by sandwich ELISA using the MCP-1 Duoset ELISA development system (R&D Systems).
Half area 96-well ELISA plates were coated with anti-MCP-1 capture antibody (R&D Systems) at a concentration of 1 μg/ml. Plates were incubated overnight at 4° C., washed twice in tap water and blocked for 1 h in PBSC. […] The absorbance was measured at 450 nm using a microplate reader (Victor^3, Perkin Elmer).

[3] = test system: IL-6/TNF-dependent proliferation of TF-1 cells; assay: TF-1 cell assay, stimulated with both IL-6 and TNF (Example 11); format: cell-based, human; details: TF-1 cells simultaneously stimulated with IL-6 and TNF
Procedure: TF-1 cells were cultured in RPMI1640 with L-glut (Lonza) supplemented with 10% FCS (Gibco), Pen-Strep (Lonza) and 2 ng/ml rhGM-CSF (R&D Systems). Prior to use, the cells were washed twice in RPMI1640 in the absence of rhGM-CSF. Cells were then counted and dispensed into 96 well flat bottomed plates at a density of 4×10^4 cells per well. […] The samples were incubated in the presence of either 0.099 nM rhIL-6 (R&D Systems, cat. no. 206-IL/CF), 0.023 nM rhTNF (R&D Systems, cat. no. 210-TA) or a combination of both cytokines. The pre-mixtures were transferred to wells containing TF-1 cells which were incubated for 72 h at 37° C. in a humidified 5% CO2 atmosphere. During the last four hours of incubation, 10 μl of CCK-8 (Fluka, Sigma Aldrich) was added per well to determine the number of proliferating cells. The absorbance was measured at 450 nm (Abs450) using a microplate reader (VICTOR^3, Perkin Elmer). The data on cell growth was assessed by non-linear regression to a four-parameter dose-response curve, and the half maximal inhibitory concentration (IC50) was determined using GraphPad Prism program. The inhibition of IL-6/TNF-dependent proliferation of TF-1 cells by the inhibitory molecules was as Abs450 minus control wells that contained cells but no IL-6.

T1 sequence (P01375 77-233 limits assumed): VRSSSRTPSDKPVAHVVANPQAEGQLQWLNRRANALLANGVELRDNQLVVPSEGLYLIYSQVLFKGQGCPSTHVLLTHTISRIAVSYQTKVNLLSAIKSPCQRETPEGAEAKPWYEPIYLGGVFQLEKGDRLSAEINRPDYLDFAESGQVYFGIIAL

With Adalimumab the EC50 (TNF) was 0.077 nM.
For tocilizumab, the “reduction of RA-related symptoms” value [1] is listed as “more effective than adalimumab”.
With “Z03638: control Z variant binding an irrelevant target; tested in fusion with ABD variant PP013 [reference compound]” the “inhibition of IL-6 mediated trans-signaling” value [2] was “did not”.
With “His6-Z04726: negative control Z variant Z04726 (SEQ ID NO:1553) with N-terminal His6-tag [reference compound]” the “blocking of TF-1 cell growth” value [3] was “No effect”.
